The results in this text go back to PubChem BioAssay AID1919001 (Molecular Pharmacology Branch, DTP, NCI, 2023).

The subject of the experiment is 699152-130-R-J1-PDC complex spheroid growth. Nature of the experiment: Anticancer human tumor 699152-130-R-J1-PDC patient-derived pancreatic carcinoma cell line growth inhibition [AhR]. The settings on record: for viability, T/C: stronger effect = lower value. The text has this: Multicellular complex tumor spheroid response to aryl hydrocarbon receptor antagonists in combination with a variety of drugs and investigational agents in selected tumor cell lines
The current study was undertaken to assess response to aryl hydrocarbon receptor antagonists in combination with standard-of-care drugs and investigational agents in solid tumor complex spheroid models. Complex spheroids include a stromal component modeled by human endothelial cells (HUVEC) and fibroblasts modeled by human mesenchymal stem cells (MSCs). The concentration ranges selected for each drug and investigational agent were based upon clinically achievable concentrations if the clinical Cmax of the agent was known.
Compounds. The drugs and investigational agents: BAY 2416964 (NSC825713), GNF351 (NSC835774), CH-223191 (NSC835775), CPI-455 (NSC825282), aza-TdCyd (NSC777586), decitabine (NSC127716), belinostat (NSC758774), entinostat (NSC756642), pevonedistat (NSC761192), tazemetostat (NSC777109), talazoparib (NSC765396), olaparib (NSC753686), selinexor (NSC780203), nedisertib (M3814, NSC802822), bortezomib (NSC756655), venetoclax (NSC766270), doxorubicin (NSC123127), elimusertib (BAY189344, NSC800525), ceralasertib (AZD6738, NSC777638), TAK-243 (NSC785004), alisertib (NSC759677), etoposide (NSC141540), topotecan (NSC609699), eribulin (NSC707389), gemcitabine (NSC613327), carboplatin (NSC241240), cisplatin (NSC119875), and SN-38 (NSC673596) were obtained from the National Cancer Institute (NCI) Developmental Therapeutics Program Chemical Repository (32). The FDA-approved anticancer drug set is available from the Developmental Therapeutics Program at https://dtp.cancer.gov/organization/dscb/obtaining/available plates.htm. […] The stock solutions were prepared in dimethyl sulfoxide (DMSO, Sigma-Aldrich, St. Louis, MO, cat. D2650), except for the platinum compounds which were prepared in saline (Quality Biological, Gaithersburg, MD, cat. 114-055-101), at 800-fold the tested concentration and stored at -70 degrees C prior to their use. All drugs and investigational agents were tested over a range starting from a high concentration at or near the clinical Cmax and decreasing in half-log increments. If the clinical Cmax for an agent had not been determined, the highest concentration tested was 10 microM (Table 1).
Cell Culture. All cells were maintained in an incubator at 37 degrees C and 5% CO2 with 95% humidity. The PDC lines were cultured according to standard operating procedures established by the NCI PDMR (https://pdmr.cancer.gov). Briefly, all PDCs were thawed and cultured in Matrigel-coated flasks prepared with a working solution of 1X Ham's F-12 nutrient mix, without supplementation (Invitrogen, Waltham, MA, cat. 11765054), 100 U/mL penicillin-streptomycin (Invitrogen, cat. 15140122), and 2.5% Matrigel (Corning Inc., Corning, NY, cat. 354248) for the first three passages. All PDCs were cultured in complete DMEM/F-12 media containing advanced DMEM/F-12 (Invitrogen, cat. 12634028), 4.9% defined fetal bovine serum, heat inactivated (HyClone Laboratories Inc., Logan, UT, cat. SH30070.03HI), 389 ng/mL hydrocortisone (Sigma-Aldrich, cat. H4001), 9.7 ng/mL human EGF recombinant protein (Invitrogen, cat. PHG0313), 23.4 microg/mL adenine (Sigma-Aldrich, cat. A2786), 97.3 U/mL penicillin-streptomycin (Invitrogen, cat. 15140122), 1.9 mM L-glutamine (Invitrogen, cat. 25030081), and 9.7 microM Y-27632 dihydrochloride (Tocris Bioscience, Bristol, United Kingdom, cat. 1254). The PDCs were cultured in complete DMEM/F12 media without 10 microM Y-27632 dihydrochloride for at least two passages prior to the screen. The established cell lines NCI-H1341 and […] were cultured in DMEM/F-12, HEPES (Invitrogen, cat. 11330032), 5% defined fetal bovine serum (HyClone Laboratories Inc., cat. SH30070.03), ITS premix universal culture supplement [insulin (5 microg/mL), transferrin (5 microg/mL), and selenious acid (5 ng/mL)] […]

The mark [1] stands for this setting: curve of first compound, second compound 0.1 µM.
Setting [2] is: curve of first compound, second compound 0.316 µM.
[3] abbreviates: curve of first compound, second compound 1 µM.
Setting [4] is: curve of first compound, second compound 3.16 µM.
Setting [5] is: curve of first compound, second compound 10 µM.
Setting [6] is: second compound 0.1 µM, first compound 0.0316 µM.
The mark [7] stands for this setting: second compound 0.1 µM, first compound 0.1 µM.
Setting [8] is: second compound 0.1 µM, first compound 0.316 µM.
Where [9] appears, read: second compound 0.1 µM, first compound 1 µM.
[10] abbreviates: second compound 0.316 µM, first compound 0.0316 µM.
Setting [11] is: second compound 0.316 µM, first compound 0.1 µM.
Where [12] appears, read: second compound 0.316 µM, first compound 0.316 µM.
The mark [13] stands for this setting: second compound 0.316 µM, first compound 1 µM.
Setting [14] is: second compound 1 µM, first compound 0.0316 µM.
Where [15] appears, read: second compound 1 µM, first compound 0.1 µM.
The mark [16] stands for this setting: second compound 1 µM, first compound 0.316 µM.
The mark [17] stands for this setting: second compound 1 µM, first compound 1 µM.
[18] abbreviates: second compound 3.16 µM, first compound 0.0316 µM.
[19] abbreviates: second compound 3.16 µM, first compound 0.1 µM.
The mark [20] stands for this setting: second compound 3.16 µM, first compound 0.316 µM.
Where [21] appears, read: second compound 3.16 µM, first compound 1 µM.
[22] abbreviates: second compound 10 µM, first compound 0.0316 µM.
The mark [23] stands for this setting: second compound 10 µM, first compound 0.1 µM.
Where [24] appears, read: second compound 10 µM, first compound 0.316 µM.
[25] abbreviates: second compound 10 µM, first compound 1 µM.

As a reminder, the pIC50 is the IC50 on a negative log10 scale, so that one unit is a factor of ten. For orientation: viability, T/C means the ratio of treated to control.

pIC50: −log10 of the molar value. Where “and” joins values, the source holds several entries; their conditions need not be identical. Identical values can stand only once.
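Note: compound exposure lasted 7 days after spheroids had grown for 3 days.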

Consider `CC1COCCN1c1cc(C2(S(C)(=N)=O)CC2)nc(-c2ccnc3[nH]ccc23)n1` (stereo not drawn) + Cc1cncc(-c2nc(NCCc3c[nH]c4ccccc34)c3ncn(C(C)C)c3n2)c1, for which the negative-log IC50 (pIC50) under setting [1] was less than 5.00; the pIC50 under setting [2] is less than 5.00; the pIC50 under setting [3] was less than 5.00; the pIC50 under setting [4] is less than 5.00; the pIC50 under setting [5] is greater than 7.50. Moreover, the viability, T/C is 98.9% under setting [6]; 103% under setting [7]; 113% under setting [8]; 95.9% under setting [9]; 85.3% (second compound 0.1 µM, first compound 3.16 µM); 74.8% (second compound 0.1 µM, first compound 10 µM). The viability, T/C was 96.5% under setting [10]; 106% under setting [11]; 114% under setting [12]; 119% under setting [13]; 95.1% (second compound 0.316 µM, first compound 3.16 µM); 77.8% (second compound 0.316 µM, first compound 10 µM). Further, the viability, T/C was 117% under setting [14]; 122% under setting [15]; 126% under setting [16]; 107% under setting [17]; 123% (second compound 1 µM, first compound 3.16 µM); 81.3% (second compound 1 µM, first compound 10 µM). Further, the viability, T/C by setting is: under setting [18], 90.6%; under setting [19], 113%; under setting [20], 90.9%; under setting [21], 101%; (second compound 3.16 µM, first compound 3.16 µM) 92.3%; (second compound 3.16 µM, first compound 10 µM) 69.9%. Further, the viability, T/C reads like this: under setting [22], 25.2%; under setting [23], 27.3%; under setting [24], 29.9%; under setting [25], 24.7%; (second compound 10 µM, first compound 3.16 µM) 25.9%; (second compound 10 µM, first compound 10 µM) 20.2%.

For the compound `Nc1ncn(C2CC(O)C(CO)O2)c(=O)n1` (stereo not drawn) + CC(CO)NC(=O)c1cc(-c2ccc(Cl)cc2)nn(-c2cnn(C)c2)c1=O, the pIC50 was less than 6.00 under setting [1]; less than 6.00 under setting [2]; less than 6.00 under setting [3]; less than 6.00 under setting [4]; less than 6.00 under setting [5]. Moreover, the viability, T/C (second compound 0.1 µM, first compound 0.00316 µM) was 90.2%; the viability, T/C (second compound 0.1 µM, first compound 0.01 µM) is 100%; the viability, T/C under setting [6] is 97%; the viability, T/C under setting [7] is 102%; the viability, T/C under setting [8] was 96.9%; the viability, T/C under setting [9] was 93.3%. Also, the viability, T/C (second compound 0.316 µM, first compound 0.00316 µM) was 89.5%; the viability, T/C (second compound 0.316 µM, first compound 0.01 µM) was 100%; the viability, T/C under setting [10] is 86.7%; the viability, T/C under setting [11] was 87.2%; the viability, T/C under setting [12] was 87.8%; the viability, T/C under setting [13] was 72.2%. Also, the viability, T/C (second compound 1 µM, first compound 0.00316 µM) was 112%; the viability, T/C (second compound 1 µM, first compound 0.01 µM) is 103%; the viability, T/C under setting [14] is 107%; the viability, T/C under setting [15] was 87.7%; the viability, T/C under setting [16] was 77.7%; the viability, T/C under setting [17] is 82.3%. In addition, the viability, T/C is 75.4% (second compound 3.16 µM, first compound 0.00316 µM); 87.6% (second compound 3.16 µM, first compound 0.01 µM); 82.2% under setting [18]; 82.1% under setting [19]; 81% under setting [20]; 70% under setting [21]. For the same compound, the viability, T/C is, setting by setting: (second compound 10 µM, first compound 0.00316 µM) 85.8%; (second compound 10 µM, first compound 0.01 µM) 85.3%; under setting [22], 79.9%; under setting [23], 70%; under setting [24], 66.6%; under setting [25], 77.1%.

Consider `CC(C)c1c(-c2ccccc2)nc2c(C#N)c[nH]n2c1=O`, for which the viability, T/C (compound 0.0316 µM) was 108% and 92.1% and 105%; the viability, T/C (compound 0.1 µM) was 102% (2×) and 87.1%; the viability, T/C (compound 0.316 µM) was 109% and 90% and 107%; the viability, T/C (compound 1 µM) was 97.5% and 90.3% and 96%; the viability, T/C (compound 3.16 µM) is 112% and 104% and 99.7%; the viability, T/C (compound 10 µM) was 107% and 88.4% and 99.3%. For the same compound, the negative logarithm of the IC50 (pIC50) (curve of compound) was less than 5.00.

On to `Cc1cncc(-c2nc(NCCc3c[nH]c4ccccc34)c3ncn(C(C)C)c3n2)c1`, for which, where the note is “compound 0.1 µM”, the viability, T/C was 97.9% [middle of 20 runs].
